Laboratory results from US7803804B2, “Substituted pyrazines for use in the treatment of inflammatory or allergic conditions” (Novartis AG, priority 2005, dated 2010).
pIC50: −log10 of the molar value.

Biological target: T1, epithelial sodium channel (ENaC) (Homo sapiens, UniProt P37088+P51168+P51170)
T1 construct: host or cells: primary human bronchial epithelial cells (HBECs), differentiated at air-liquid interface
T1 sequence (P37088 1-669): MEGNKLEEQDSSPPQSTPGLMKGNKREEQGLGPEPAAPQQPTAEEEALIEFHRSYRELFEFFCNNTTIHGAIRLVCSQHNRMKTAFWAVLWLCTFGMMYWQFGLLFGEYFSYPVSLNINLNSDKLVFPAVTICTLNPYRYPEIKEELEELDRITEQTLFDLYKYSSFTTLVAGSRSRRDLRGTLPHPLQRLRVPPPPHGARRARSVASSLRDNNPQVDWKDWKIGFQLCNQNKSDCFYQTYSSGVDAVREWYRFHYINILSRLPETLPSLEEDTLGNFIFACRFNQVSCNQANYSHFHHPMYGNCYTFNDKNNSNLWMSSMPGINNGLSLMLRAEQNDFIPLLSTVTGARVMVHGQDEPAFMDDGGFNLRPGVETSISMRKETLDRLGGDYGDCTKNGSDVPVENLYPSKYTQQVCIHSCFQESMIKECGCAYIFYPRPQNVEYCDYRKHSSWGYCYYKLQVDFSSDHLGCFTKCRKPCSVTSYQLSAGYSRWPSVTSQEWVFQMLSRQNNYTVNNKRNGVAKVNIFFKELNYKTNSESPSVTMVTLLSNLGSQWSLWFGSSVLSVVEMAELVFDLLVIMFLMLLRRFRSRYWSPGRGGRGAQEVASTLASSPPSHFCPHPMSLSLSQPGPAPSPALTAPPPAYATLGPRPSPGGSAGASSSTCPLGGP
T1 sequence (P51168 1-640): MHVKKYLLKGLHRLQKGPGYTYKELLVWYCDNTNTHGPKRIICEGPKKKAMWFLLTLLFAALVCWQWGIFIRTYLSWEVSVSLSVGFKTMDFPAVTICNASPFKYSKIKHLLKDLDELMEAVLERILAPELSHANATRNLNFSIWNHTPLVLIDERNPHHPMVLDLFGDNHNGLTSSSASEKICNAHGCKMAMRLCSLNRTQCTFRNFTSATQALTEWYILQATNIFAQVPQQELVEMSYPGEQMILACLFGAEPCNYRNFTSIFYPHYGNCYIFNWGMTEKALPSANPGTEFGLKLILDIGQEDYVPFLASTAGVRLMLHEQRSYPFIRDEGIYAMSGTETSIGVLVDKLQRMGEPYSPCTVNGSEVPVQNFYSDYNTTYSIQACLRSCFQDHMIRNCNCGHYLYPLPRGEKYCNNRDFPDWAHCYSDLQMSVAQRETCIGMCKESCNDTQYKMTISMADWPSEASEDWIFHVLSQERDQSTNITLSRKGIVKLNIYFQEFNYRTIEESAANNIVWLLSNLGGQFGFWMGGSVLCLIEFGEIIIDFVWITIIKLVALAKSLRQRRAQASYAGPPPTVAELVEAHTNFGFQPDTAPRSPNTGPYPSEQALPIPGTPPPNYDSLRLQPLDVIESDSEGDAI
T1 sequence (P51170 1-649): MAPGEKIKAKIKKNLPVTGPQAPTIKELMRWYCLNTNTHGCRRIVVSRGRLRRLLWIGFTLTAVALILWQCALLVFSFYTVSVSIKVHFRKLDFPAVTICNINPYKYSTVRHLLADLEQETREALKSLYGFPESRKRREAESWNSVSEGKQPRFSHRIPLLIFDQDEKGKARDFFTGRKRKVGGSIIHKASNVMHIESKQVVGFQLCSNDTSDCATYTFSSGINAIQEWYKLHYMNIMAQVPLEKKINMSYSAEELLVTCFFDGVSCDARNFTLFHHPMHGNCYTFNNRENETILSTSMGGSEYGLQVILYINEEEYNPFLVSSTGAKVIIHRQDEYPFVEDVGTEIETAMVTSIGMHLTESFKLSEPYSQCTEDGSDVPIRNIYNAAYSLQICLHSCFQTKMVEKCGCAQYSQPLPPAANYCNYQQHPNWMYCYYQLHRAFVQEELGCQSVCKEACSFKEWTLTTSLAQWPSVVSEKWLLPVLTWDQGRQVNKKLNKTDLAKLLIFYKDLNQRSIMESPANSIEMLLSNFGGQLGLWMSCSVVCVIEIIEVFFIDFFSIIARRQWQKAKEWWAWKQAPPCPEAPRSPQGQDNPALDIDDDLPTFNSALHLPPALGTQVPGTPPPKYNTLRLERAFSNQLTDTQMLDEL
Assay: Short circuit current (ISC) measurements in human bronchial epithelial cells, inhibition of the amiloride-sensitive ISC
Type: cell-based
Conditions: air-liquid interface culture, Ussing chamber, compound added to the apical chamber
Protocol: Compounds of formula (I) and their pharmaceutically acceptable salts, hereinafter referred to alternatively as “agents of the invention”, are useful as pharmaceuticals. In particular, the compounds have good ENaC blocker activity and may be tested in the following assays.
Human Bronchial Epithelial cells (HBECS) (Cambrex) were cultured under air-liquid interface conditions to provide a well differentiated mucociliary phenotype.
HBECs were cultured using a modification of the method described by Gray and colleagues (Gray et al., 1996). […]
Snapwell inserts were mounted in Vertical Diffusion Chambers (Costar) and were bathed with continuously gassed Ringer solution (5% CO2 in O2; pH 7.4) maintained at 37° C. containing (in mM): 120 NaCl, 25 NaHCO3, 3.3 KH2PO4, 0.8 K2HPO4, 1.2 CaCl2, 1.2 MgCl2, and 10 glucose. […] RT was measured by applying a 1- or 2-mV pulse at 30-s intervals and calculating RT by Ohm's law. Data were recorded using a PowerLab workstation (ADInstruments).
Test compounds were prepared as a 10 mM stock solution in DMSO (95%). […] At the completion of the concentration-response experiment, amiloride (10 μM) was added into the apical chamber to enable the total amiloride-sensitive current to be measured. […]
Results are expressed as the mean % inhibition of the amiloride-sensitive ISC. […] Cell inserts were typically run in duplicate and the IC50 calculated on the mean % inhibition data.

pIC50	Structure (SMILES)
8.24	N=C(NCC1CCC(CNC(=N)NC(=O)c2nc(Cl)c(N)nc2N)CC1)NC(=O)c1nc(Cl)c(N)nc1N (centres unmarked) [Example 2]
9.70	N=C(NC(=O)c1nc(Cl)c(N)nc1N)N[C@H]1CC[C@H](NC(=N)NC(=O)c2nc(Cl)c(N)nc2N)CC1 [Example 5]
